According to patent US11058650B2, “Fatty acid amides for the prevention and/or treatment of steatohepatitis” (FUNDACIÓN RÚBLICA ANDALUZA PARA LA INVESTIGACIÓN DE MÁLAGA …, priority 2014, dated 2021):
Values joined by “and” are separate entries in the source; they are usually repeats but may differ in a detail not shown here. Identical values can stand only once. Like-named read-outs stand apart in the source and are kept apart here. Blank lines part the entries; values can stand above or below the compound they belong to.

How the values were obtained:
[1] = target: CYP3A4 (Homo sapiens, UniProt P08684); assay: biochemical
[2] = tested on: liver of Zucker rats; assay: Gene expression (RT-qPCR) in the liver of Zucker rats; assay type: in vivo, rat
Experimental: (§1) All the experiments were carried out in obese (fa/fa) and thin (Fa/?) male Zucker rats 8-9 weeks of age. The animals were placed in individual cages in a room with controlled temperature, humidity and lighting (light/darkness cycles of 12 hours), and with free access to food and water (standard laboratory diet).
(§2) OLHHA was dissolved in a vehicle containing 5% Tween 80 in saline and intraperitoneally (i.p.) administered at a dose of 5 mg/kg (volume of 1 ml/kg body weight) at the beginning of the light cycle (9:00 am-10:00 am) for 15 consecutive days. Two hours after the last injection, the animals were euthanized using sodium pentobarbital (50 mg/kg, i.p.) and blood and liver samples were extracted. The blood was centrifuged at 2100×g for 8 minutes at 4° C. and the obtained plasma was kept at −80° C. for subsequent analysis. The liver samples were also stored at −80° C.
For isolating total RNA from the liver, the samples were homogenized in Trizol and then purified using Qiagen RNeasy Minelute Cleanup Kit (selectively eliminates most molecules smaller than 200 nucleotides), also including a DNAse treatment. The total mRNA concentration was quantified using a spectrophotometer. In all the cases, the A260/280 ratio was between 1.8 and 2. Complementary DNA synthesis was carried out by reverse transcription using the Transcriptor Reverse Transcriptase kit (Transcriptor RT, Roche Diagnostic). For real-time PCR (RT-qPCR), an ABI PRISM® 7300 Real-Time PCR System (Applied Biosystems) and TaqMan probes were used. The single-product amplification was confirmed by means of analyzing the melting curves. The values of each sample were normalized with respect to the beta-actin constitutive gene. The relative quantification was calculated by means of the ΔΔCt method and normalized to the control group. The Taqman probes were obtained from the rat genome database of Applied Biosystems (http://bioinfo.appliedbiosystems.com/genome-database/gene-expression.html): […]

[3] = tested on: liver of obese Zucker rats; assay: Protein levels of lipid metabolism enzymes in the liver of obese Zucker rats; assay type: in vivo, rat; settings: change seen in mRNA (reduction)
Experimental: as §1, §2

[4] = tested on: obese rats; assay: Kidney function-related plasma protein level in obese rats; assay type: in vivo, rat; settings: 5 mg/kg i.p. 15 days
Experimental: as §1, §2
Commercial kits were used for determining serum creatinine and urea and they were analyzed in a Hitachi 737 automatic biochemistry analyzer.

[5] = tested on: Zucker rats; assay: Liver fat content and plasma triglyceride level of Zucker rats; assay type: in vivo, rat; settings: obese Zucker rats, 5 mg/kg once a day 15 days
Experimental: as §1, §2
The total liver fat content and the plasma triglyceride level were evaluated in thin and obese Zucker rats after a 15-day treatment with OLHHA (5 mg/kg, once a day). The samples for lipid analysis were obtained 2 hours after the last injection.
The Bligh & Dyer method (Bligh and Dyer, 1959) was followed for liver fat quantification. […] The fat content was expressed as % of tissue weight. […]

[6] = Body weight gain and food intake in Zucker rats, chronic treatment; assay type: in vivo, rat; settings: 5 mg/kg i.p. daily 15 days
Experimental: as §1, §2
Animals received an injection (i.p.) of vehicle or OLHHA (5 mg/kg) daily for 15 consecutive days. For this experiment, 8 rats were used per group. The total body weight gain (g) and the accumulated food intake (g/kg of body weight) were evaluated daily.

[7] = tested on: obese rats; assay: Hepatic serum transaminase level in obese rats; assay type: in vivo, rat; settings: 5 mg/kg i.p. 15 days
Experimental: as §1, §2
Commercial kits were used for determining hepatic serum transaminases and they were analyzed in a Hitachi 737 automatic biochemistry analyzer.

[8] = target: CYP2C9 (Homo sapiens, UniProt P11712); assay: P450 cytochrome inhibition fluorometric assay CYP2C9; assay type: in vitro ADME
Experimental: However, most human CYPs tolerate acetonitrile. […] OLHHA was tested in triplicate.

[9] = target: CYP2D6 (Homo sapiens, UniProt P10635); assay: biochemical
[10] = tested on: obese rats; assay: Circulating pro-inflammatory cytokine level in obese rats (ELISA); assay type: in vivo, rat; settings: 5 mg/kg i.p. 15 days
Experimental: as §1, §2
Circulating IL-6 and TNF-α levels were measured by means of ELISAs using commercial kits (Abcam).

[11] = target: T1, hERG channel (Homo sapiens, UniProt Q12809); assay: hERG channel functional assay (FluxOR thallium fluorescence); assay type: cell-based; settings: HEK-293 cells expressing hERG
T1 construct: expressed in transfected cells; host or cells: HEK293
Experimental: The hERG channel assay was used to identify if OLHHA may cause cardiotoxicity (FIG. 8). […] FluxOR™ is protected by AM groups which prevent fluorescence outside the cell. When it enters the cell, esterases in the cytosol remove the AM groups, and FluxOR™ will be converted to its active form in which it is capable of binding to thallium, which moves into the cytoplasm through the hERG channel, resulting in the emission of fluorescence. HEK293 cells expressing the hERG channel were seeded in poly-D-lysine-treated, black 96-well plates and incubated for 24 hours. […] Next, 20 μl of FluxOR™ dissolved in the assay buffer were added. The fluorochrome was incubated with the cells for 1 hour at room temperature. Next, the plates were washed with 50 μl of assay buffer and the compound OLHHA at a dilution of 1:200 (2 μl of OLHHA/400 μl of assay buffer) was added using an EP3 station. […] The plates were incubated with OLHHA for 30 minutes and then read in a […], which added 5 μl of stimulation buffer (Tl2SO4+K2SO4), and read the fluorescence for 120 s, which allowed analyzing channel kinetics.

[12] = tested on: liver of obese Zucker rats; assay: Histological evaluation of fatty liver and Caspase-3 in obese Zucker rats; assay type: in vivo, rat
Experimental: as §1, §2
The histological analysis of the livers of obese Zucker rats treated with the vehicle or with OLHHA confirmed the biochemistry total fat quantification results.

[13] = obese Zucker rats liver, immunohistochemistry
[14] = obese Zucker rats, chronic treatment, vs vehicle

CYP3A4, sequence (P08684 whole entry): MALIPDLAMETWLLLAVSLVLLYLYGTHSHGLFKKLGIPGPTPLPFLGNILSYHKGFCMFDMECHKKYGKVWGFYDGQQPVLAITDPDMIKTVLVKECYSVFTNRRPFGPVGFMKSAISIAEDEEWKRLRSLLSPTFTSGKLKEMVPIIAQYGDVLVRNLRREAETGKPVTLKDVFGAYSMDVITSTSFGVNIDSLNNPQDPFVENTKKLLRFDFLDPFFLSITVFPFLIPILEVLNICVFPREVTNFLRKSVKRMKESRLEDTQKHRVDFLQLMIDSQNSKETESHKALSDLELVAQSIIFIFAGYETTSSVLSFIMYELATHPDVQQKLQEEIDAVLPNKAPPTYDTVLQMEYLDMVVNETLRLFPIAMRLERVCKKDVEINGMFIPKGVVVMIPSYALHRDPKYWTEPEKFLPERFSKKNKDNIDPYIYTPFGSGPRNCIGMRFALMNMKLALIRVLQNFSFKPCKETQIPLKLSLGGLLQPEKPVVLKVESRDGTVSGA
CYP2C9, sequence (P11712 whole entry): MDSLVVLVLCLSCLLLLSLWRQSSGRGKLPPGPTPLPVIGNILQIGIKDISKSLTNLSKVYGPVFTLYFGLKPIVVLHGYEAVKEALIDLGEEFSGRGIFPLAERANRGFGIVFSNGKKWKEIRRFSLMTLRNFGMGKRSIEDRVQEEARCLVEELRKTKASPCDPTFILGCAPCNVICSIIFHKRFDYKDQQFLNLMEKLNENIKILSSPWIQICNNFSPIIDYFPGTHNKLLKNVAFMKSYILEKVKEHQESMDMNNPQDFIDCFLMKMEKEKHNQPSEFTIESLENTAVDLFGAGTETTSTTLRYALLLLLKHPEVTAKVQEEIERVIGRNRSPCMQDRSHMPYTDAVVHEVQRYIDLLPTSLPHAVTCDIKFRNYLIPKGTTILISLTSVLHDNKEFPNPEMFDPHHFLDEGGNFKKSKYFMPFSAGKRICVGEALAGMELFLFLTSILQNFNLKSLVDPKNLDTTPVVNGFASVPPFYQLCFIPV
T1 sequence (Q12809 whole entry): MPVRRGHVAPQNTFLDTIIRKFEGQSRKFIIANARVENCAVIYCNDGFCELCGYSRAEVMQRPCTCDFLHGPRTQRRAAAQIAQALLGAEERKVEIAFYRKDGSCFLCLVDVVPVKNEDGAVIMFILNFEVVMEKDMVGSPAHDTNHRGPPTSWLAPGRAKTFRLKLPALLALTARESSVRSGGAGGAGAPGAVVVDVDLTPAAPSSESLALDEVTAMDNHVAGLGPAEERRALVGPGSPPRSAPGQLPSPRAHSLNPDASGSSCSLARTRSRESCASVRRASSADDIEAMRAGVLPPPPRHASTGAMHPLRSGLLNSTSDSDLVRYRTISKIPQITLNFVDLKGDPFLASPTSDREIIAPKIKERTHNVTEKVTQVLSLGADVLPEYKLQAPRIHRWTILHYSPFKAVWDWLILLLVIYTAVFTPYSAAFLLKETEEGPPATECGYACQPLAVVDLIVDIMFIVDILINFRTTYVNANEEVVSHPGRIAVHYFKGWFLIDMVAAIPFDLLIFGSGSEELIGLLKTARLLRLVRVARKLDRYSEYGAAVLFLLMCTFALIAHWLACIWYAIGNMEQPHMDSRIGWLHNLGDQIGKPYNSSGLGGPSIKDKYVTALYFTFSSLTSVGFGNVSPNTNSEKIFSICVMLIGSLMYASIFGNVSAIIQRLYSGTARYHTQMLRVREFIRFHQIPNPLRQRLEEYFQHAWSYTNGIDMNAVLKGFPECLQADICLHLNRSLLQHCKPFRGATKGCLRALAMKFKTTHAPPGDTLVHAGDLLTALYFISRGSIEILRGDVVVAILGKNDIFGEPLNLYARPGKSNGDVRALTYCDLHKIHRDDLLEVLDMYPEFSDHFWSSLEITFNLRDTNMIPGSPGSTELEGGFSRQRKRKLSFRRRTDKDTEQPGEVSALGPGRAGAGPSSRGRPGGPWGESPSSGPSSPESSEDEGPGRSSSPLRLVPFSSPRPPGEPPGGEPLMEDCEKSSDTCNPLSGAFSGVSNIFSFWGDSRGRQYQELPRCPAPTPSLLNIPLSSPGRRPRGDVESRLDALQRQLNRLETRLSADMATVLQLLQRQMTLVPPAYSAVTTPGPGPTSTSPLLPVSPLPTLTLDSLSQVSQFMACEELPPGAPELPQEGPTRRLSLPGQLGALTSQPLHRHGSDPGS
CYP2D6, sequence (P10635 whole entry): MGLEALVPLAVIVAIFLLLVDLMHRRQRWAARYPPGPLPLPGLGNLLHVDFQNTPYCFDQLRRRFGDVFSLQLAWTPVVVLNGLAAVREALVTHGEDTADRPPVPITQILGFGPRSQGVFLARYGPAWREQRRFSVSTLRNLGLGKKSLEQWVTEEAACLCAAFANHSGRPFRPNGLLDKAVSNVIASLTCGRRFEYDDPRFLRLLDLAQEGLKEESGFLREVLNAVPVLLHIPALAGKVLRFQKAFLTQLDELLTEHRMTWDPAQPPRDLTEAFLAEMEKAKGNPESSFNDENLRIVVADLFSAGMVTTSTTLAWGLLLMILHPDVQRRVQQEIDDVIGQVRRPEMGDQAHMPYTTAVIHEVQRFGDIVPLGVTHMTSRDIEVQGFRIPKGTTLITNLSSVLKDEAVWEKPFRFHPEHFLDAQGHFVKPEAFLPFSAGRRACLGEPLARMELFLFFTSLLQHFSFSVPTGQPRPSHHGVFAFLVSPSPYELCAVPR

- IC50 [1]: 14.8 µM and > 10 µM
- creatinine levels [4]: did not affect
- IC50 ([8]; degree of inhibition, read-out: CYP2C9 Inhibitor category): 1 to 10 µM
- IC50 ([8]; fluorometric assay, maximum dose 105 μM, read-out: CYP2C9 IC50): 6.8 µM
- IC50 [9]: 23.3 µM and > 10 µM
Structure (SMILES): CCCCCCCC/C=C\CCCCCCCC(=O)NC(C)Cc1ccc(O)c(O)c1 (stereo not shown) [OLHHA, N-(1-(3,4-dihydroxyphenyl)propan-2-yl)oleamide]
- ACOX mRNA expression ([2]; 5 mg/kg i.p. 15 days): significant increase
- FAS mRNA expression (fatty acid biosynthesis) ([2]; 5 mg/kg i.p. 15 days): significant reduction
- HMG-CoAR mRNA expression (cholesterol biosynthesis) ([2]; 5 mg/kg i.p. 15 days): significant reduction
- INSIG2 mRNA expression ([2]; 5 mg/kg i.p. 15 days): significantly increased
- NAPE-PLD mRNA expression ([2]; 5 mg/kg i.p. 15 days): significantly reduced
- L-FABP mRNA level ([2]; chronic treatment): increased
- FAS protein expression level [3]: confirmed at the protein expression level
- HMG-CoAR protein expression level [3]: confirmed at the protein expression level
- urea levels ([4]; vs vehicle, p<0.001): significant reduction
- circulating triglycerides ([5]; five-fold increase in obese vs thin): prevented these increases
- total liver fat content ([5]; three-fold increase in obese vs thin): prevented these increases
- accumulated food intake ([6]; obese Zucker rats): did not cause any effect
- body weight gain ([6]; obese Zucker rats): did not cause any effect
- accumulated food intake ([6]; thin Zucker rats, starting on the fifth day, vs vehicle): significant reduction
- body weight gain ([6]; thin Zucker rats, vs vehicle): significant inhibition
- aspartate aminotransferase (AST) level ([7]; not statistically significant): reduction
- alanine aminotransferase (ALT) level ([7]; statistically significant (p<0.05)): reduction
- gamma-glutamyl transpeptidase (GGt) ([7]; vs vehicle): no effect was observed
- plasma IL6 levels [10]: no changes were detected
- TNF-α level ([10]; did not reach a degree of significance): drop
- IC50 ([11]; maximum concentration 150 μM): > 150 µM
- expression of activated Caspase-3 [12, 13]: reduced the expression
- expression of total Caspase-3 [12, 13]: reduced the expression
- apoptotic activity in liver [12, 14]: reduction in apoptotic activity
- liver fat content (hematoxylin-eosin and oil red staining) [12, 14]: reduction in liver fat content

Structure (SMILES): CC(C)COCC(CN(Cc1ccccc1)c1ccccc1)N1CCCC1 (stereo not shown) [bepridil, reference compound]
- IC50 at 30 min ([11]; human, HEK293 cells expressing the hERG channel, pH 7.4, probe FluxOR fluorescent dye / thallium ions, standard control inhibitors, unit M): 2.2 µM
